Laboratory results as given in ChEMBL document CHEMBL3808327, “Natural Products as Sources of New Drugs from 1981 to 2014” (J Nat Prod, 2016).

Biological target: Serine/threonine-protein kinase B-raf (Homo sapiens, UniProt P15056, V600E)
Experiment: Inhibition of N-terminal his-tagged BRAF V600E mutant (448 to 723 residues) (unknown origin) expressed in Escherichia coli BL21(DE3) cells assessed as phosphorylation of biotinylated-MEK by AlphaScreen assay

Serine/threonine-protein kinase B-raf, sequence (P15056 2-766 V600E limits assumed): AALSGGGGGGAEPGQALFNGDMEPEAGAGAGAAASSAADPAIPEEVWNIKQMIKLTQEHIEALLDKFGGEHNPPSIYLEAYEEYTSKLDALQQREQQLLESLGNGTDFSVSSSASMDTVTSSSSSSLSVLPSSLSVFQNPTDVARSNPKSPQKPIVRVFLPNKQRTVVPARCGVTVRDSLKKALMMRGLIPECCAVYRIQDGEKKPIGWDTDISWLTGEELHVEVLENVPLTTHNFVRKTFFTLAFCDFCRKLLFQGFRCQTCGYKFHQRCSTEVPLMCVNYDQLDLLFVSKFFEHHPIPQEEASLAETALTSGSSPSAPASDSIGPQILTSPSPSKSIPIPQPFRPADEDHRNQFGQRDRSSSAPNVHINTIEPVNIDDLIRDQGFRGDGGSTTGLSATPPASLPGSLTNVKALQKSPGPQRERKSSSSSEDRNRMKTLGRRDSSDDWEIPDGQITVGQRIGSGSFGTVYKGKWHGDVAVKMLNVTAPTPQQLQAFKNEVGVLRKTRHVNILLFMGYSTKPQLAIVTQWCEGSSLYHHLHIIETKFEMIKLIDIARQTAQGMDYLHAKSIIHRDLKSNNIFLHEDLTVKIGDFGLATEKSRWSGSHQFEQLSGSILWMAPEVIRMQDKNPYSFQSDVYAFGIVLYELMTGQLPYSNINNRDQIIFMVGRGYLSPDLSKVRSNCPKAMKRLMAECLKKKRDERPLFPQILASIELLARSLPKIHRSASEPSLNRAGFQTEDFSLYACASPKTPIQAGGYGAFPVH

c1ccc(Nc2c[nH]c3ncccc23)cc1
IC50: > 100 µM
